Legend:
[1] = system: mouse embryonic neural stem cells; assay: Morphology analysis of NSC differentiation in mouse embryonic neural stem cells (Examples 1, 6); format: cell-based
Procedure: Neural stem cells were isolated from the brain of a day 14.5 mouse embryo, treated with 10 ng/ml human basic fibroblast growth factor (bFGF) (Peprotech, Princeton, NG, cat#.100-18B) and 20 ng/ml human epidermal growth factor (EGF) (Peprotech, cat#. AF-100-15) in a N2 culture medium, and cultured in suspension in a 25 cm2 flask (Nunc, Pittsburgh, Pa.) for 4 days. Formation of neurospheres was observed after 2 days.
In order to isolate single cells, 6-well plates were prepared the day before by treating the wells with 15 μg/ml poly-L-ornithine (Sigma, St. Louis, Mo., cat#.P2533) solution and incubating overnight at 37° C. for coating. The day of the single cell isolation, poly-L-ornithine solution was removed, the plates were washed with PBS three times, and 10 μg/ml fibronectin (Gibco, Waltham, Mass., cat#. 33016015) solution was added and incubated at 37° C. for 2 hours for coating.
Various concentrations of the compound of [Formula 1] […]

[2] = system: mouse embryonic neural stem cells; assay: Immunocytochemistry analysis, Tuj1 and DAPI staining (Example 3); format: cell-based; settings: 10 nM, 4 days
Procedure: Tuj1 (Neuron specific class III beta-tubulin) is a neuron specific marker protein, which was conjugated to rhodamine to show fluorescent red, while DAPI binds to the cell DNA and stains the cell nuclei fluorescent blue. […] The medium was removed and the cells were washed with PBS. After fixing with 10% formaldehyde (Sigma cat#. HT501128) at room temperature for 10 minutes, they were washed again with PBS. They were permeabilized with 0.2% Triton X-100 (Sigma, cat#. 93443) at room temperature for 15 minutes, washed with PBS, and incubated with 10% BSA (Sigma, cat#. A2153)+1% normal goat serum (Vector lab, Burlingame, Calif., cat#. S1000) at room temperature for 1 hour. […] The solution was removed, washed with PBS, and incubated at room temperature for 1 hour with the secondary antibody (rhodamine-conjugated antibody) diluted in 1% BSA+1% normal goat serum at a ratio of 1:200. Then, the cells were washed with PBS, incubated with 5 μg/ml DAPI (Sigma, cat#. D9542) for 5 minutes, washed with PBS again, and mounted on a slide glass for analysis with a fluorescent microscope.

[3] = system: mouse adult neural stem cells; assay: qRT-PCR of relative mRNA expression of neuronal markers in mouse adult NSC (Example 4-2); format: cell-based; settings: 10 nM for 2 days
5XFAD mouse [4] = assay: Tuj1 expression in the somatosensory cortex (Example 9-1); format: in vivo; settings: 0.1 mg/kg orally daily for 28 days, vs vehicle
Procedure: Anti-Tuj1 antibodies were added to the brain tissue slides of 5XFAD mouse in Example 8 and incubated at 4° C. for 1 day, after which the tissue slides were fluorescently stained by incubating with Fluorescein isothiocyanate (FITC)-secondary antibodies (Invitrogen, cat#. A21121) at room temperature for 1 hour. In FIG. 15, the areas marked with arrows (→) indicate cells stained with Tuj1 and the areas marked with arrowheads (▾) indicate plaques formed by amyloid-beta aggregation. Plaques were present in both vehicle-treated and trametinib-treated groups.

5XFAD mouse [5] = assay: TUNEL assay, neuroprotective activity (Example 10); format: in vivo; settings: orally daily for 28 days, vs vehicle
Procedure: The sagittal brain tissue slides described in Example 8 were rehydrated and stained with the TUNEL assay kit (Promega, Wis., USA, cat#. G3250). Specifically, the brain tissue slides were permeabilized with 20 μg/ml proteinase K solution for 10 minutes, incubated with equilibration buffer for 10 minutes, and then incubated with TdT solution at 37° C. for 1 hour. The staining of the somatosensory cortex and subiculum area, areas known to show significant cell death in 5XFAD mouse, were observed. TUNEL assay was also performed on the tissue slides of normal adult mouse brain (as control) to confirm that staining was properly done.

5XFAD mouse [6] = assay: Cerebellar Purkinje cell Tuj1 and calbindin staining (Example 11); format: in vivo; settings: particularly 0.1 mg/kg, orally daily for 28 days, vs vehicle
Source text: Two slides for Tuj1 staining and three for calbindin staining are shown for each treatment group.

Aβ(1-40) and Aβ(1-42) = assay: ELISA of Aβ(1-40) and Aβ(1-42) in brain hemispheres (Example 13); format: in vivo, mouse; settings: orally daily for 28 days, vs vehicle
Procedure: Using the ground powder of 5XFAD mouse brain hemispheres obtained in Example 12, the amount of Aβ(1-40) and Aβ(1-42) was quantified by ELISA (enzyme-linked immunosorbent assay). […] After measuring the protein concentration, dilution buffer was added to obtain 30˜50 μg of protein in 100 μl solution. 100 μl each of anti-Aβ(1-40) and Aβ(1-42) antibodies were added to the 96-well plates, incubated at room temperature for 2 hours, then removed and washed 4 times with wash buffer. 100 μl each of HRP-conjugated secondary antibodies was added and incubated at room temperature for 30 minutes. The solution was then removed and washed again 4 times with wash buffer. 100 μl of the […] was added to the wells, incubated in the dark for 30 minutes, and 100 μl of the stop solution added to terminate the reaction. Then, the chemiluminiscence reaction was measured at 450 nm with an ELISA plate reader. The absorbance was converted in reference to the standard concentration and the concentration of each protein was determined. The amount of Aβ(1-40) and Aβ(1-42) in reference to the total amount of protein (30˜50 μg) was calculated, and then the amount of Aβ(1-42) in reference to the amount of Aβ(1-40) was calculated.

pERK = assay: Western blotting of pERK in brain hemispheres (Example 12); settings: 0.1 mg/kg and 1.0 mg/kg orally daily for 28 days, vs vehicle
Procedure: The mouse was then anesthetized and perfused with PBS for the extraction of the brain. Of the brains extracted from 3 mice of each group, half of the brain tissue (hemispheres) was immediately stored in the deep freezer for western blotting and ELISA experiments to be performed later.
The powder was divided into 6 parts, put into new tubes, and placed back into the deep freezer. […] The powder was carefully suspended with a pipette in RIPA buffer, incubated on ice for 10 minutes, centrifuged at 13000 rpm, 4° C., and the supernatant was collected. […] The protein bands were detected with a photosensitive imaging system (FIG. 19a). In order to quantify the change in pERK expression, the expression levels of pERK and ERK were measured by densitometry, and the expression level of pERK was normalized against the expression level of ERK.

5XFAD mouse [7] = assay: BrdU staining in the hippocampal dentate gyrus (Example 9-3); settings: orally daily for 28 days, vs vehicle
Procedure: For the BrdU staining to be performed later, 50 mg/kg of BrdU (Sigma, cat#. B5002) was added to the daily dose for the last 5 days. The mouse was then anesthetized and perfused with PBS for the extraction of the brain. Of the brains extracted from 3 mice of each group, half of the brain tissue (hemispheres) was immediately stored in the deep freezer for western blotting and ELISA experiments to be performed later. The other half of the hemispheres plus another 3 extracted mice brains per group were placed in 10% formalin solution at 4° C. for 1 day, which was then followed with the proceeding steps to allow good penetration of paraffin into the brain tissue. The brain tissues were immersed sequentially in 70%, 80%, 95%, 100% alcohol for 1 hour each for dehydration, then immersed in xylene 3 times for 1 hour each for clearing, and embedded in paraffin by placing in liquid paraffin 2 times for 1 hour each. After these procedures, the paraffin-embedded brain tissue (paraffin block) was cut into 5 μm sections, mounted on slides, and stored at room temperature. Prior to immunohistochemical staining, the tissues on the slides were rehydrated by sequentially immersing in xylene, 100%, 90%, 80%, 70%, 50% alcohol,and then water for 5 minutes each. […]

5XFAD mouse [8] = assay: NeuN immunohistochemical staining, number of neurons in the Alzheimer's disease mouse model (Example 8)
Procedure: For the BrdU staining to be performed later, 50 mg/kg of BrdU (Sigma, cat#. B5002) was added to the daily dose for the last 5 days. The mouse was then anesthetized and perfused with PBS for the extraction of the brain. […] The other half of the hemispheres plus another 3 extracted mice brains per group were placed in 10% formalin solution at 4° C. for 1 day, which was then followed with the proceeding steps to allow good penetration of paraffin into the brain tissue. The brain tissues were immersed sequentially in 70%, 80%, 95%, 100% alcohol for 1 hour each for dehydration, then immersed in xylene 3 times for 1 hour each for clearing, and embedded in paraffin by placing in liquid paraffin 2 times for 1 hour each. After these procedures, the paraffin-embedded brain tissue (paraffin block) was cut into 5 μm sections, mounted on slides, and stored at room temperature. Prior to immunohistochemical staining, the tissues on the slides were rehydrated by sequentially immersing in xylene, 100%, 90%, 80%, 70%, 50% alcohol,and then water for 5 minutes each. […] The next day, the slides were incubated with anti-rabbit antibodies (Vector lab, cat#. PI-1000) at room temperature for 1 hour and then stained with DAB staining for the analysis of the neuronal distribution in the brain.
FIG. 12b indicates the number of NeuN stained cells counted and represented as the percentage of the number of cells per unit area in the somatosensory cortex layer 5 region. Area samples were taken from 3 areas per mouse, 3 mice per group, so the number of cells counted was from a total of 9 areas.
FIG. 13b indicates the number of NeuN stained cells counted and represented as the percentage of the number of cells per unit area in the motor cortex layer 5 region. Area samples were taken from 6 areas per mouse, 3 mice per group, so the number of cells counted was from a total of 18 areas.
FIG. 14b indicates the number of NeuN stained cells counted and represented as the percentage of the number of cells per unit area in the dotted area of the hippocampal subiculum shown in FIG. 14a. Area samples were taken from 3 areas per mouse, 3 mice per group, so the number of cells counted was from a total of 9 areas.

[9] = 0.1 mg/kg and 1.0 mg/kg orally daily for 28 days, vs vehicle

SMILES: CC(=O)Nc1cccc(-n2c(=O)n(C3CC3)c(=O)c3c(Nc4ccc(I)cc4F)n(C)c(=O)c(C)c32)c1 [trametinib, N-(3-{3-cyclopropyl-5-[(2-fluoro-4-iodophenyl)amino]-6,8-dimethyl-2,4,7-trioxo-3,4,6,7-tetrahydropyrido[4,3-d]pyrimidin-1(2H)-yl}phenyl)acetamide]
- differentiation of NSC into neurons (morphology) ([1]; 10 nM, 25 nM and 100 nM, added daily, 4 days): readily induced the differentiation of NSC into neurons
- NSC differentiation-inducing effect (morphology) ([1]; 0.1 μM, day 2 of culture): excellent NSC differentiation-inducing effect
- concentration at which the differentiation-inducing effect is seen ([1]; added daily, 4 days of culture): ≥ 10 nM
- neuron differentiation by Tuj1 staining [2]: showed increasingly active differentiation activity
- mRNA expression of cholinergic neuron marker ChAT [3]: increased the expression
- mRNA expression of dopaminergic neuron marker TH [3]: increased the expression
- mRNA expression of neuronal marker Tuj1 [3]: increased the expression
- number of cells stained with Tuj1, somatosensory cortex (5XFAD mouse [4]): significant increase in the number of cells stained with Tuj1
- number of TUNEL stained cells in the somatosensory cortex and subiculum (5XFAD mouse [5]): significantly lower
- Purkinje cell axon structure (5XFAD mouse [6]): increased axon arborization or at least with preserved axon structure
- amount of Aβ(1-42)/Aβ(1-40) (Aβ(1-40) and Aβ(1-42)): decreased
- protein level of pERK in the brain (pERK): considerably lower
- number of BrdU stained cells in the dentate gyrus (5XFAD mouse [7]): an increase in the number of cells stained with BrdU
- number of NeuN stained neurons, hippocampal subiculum (5XFAD mouse [8]; [9]): significant increase in the number of neurons
- number of NeuN stained neurons, motor cortex layer 5 (5XFAD mouse [8]; [9]): significant increase in the number of neurons
- number of NeuN stained neurons, somatosensory cortex layer 5 (5XFAD mouse [8]; [9]): significant increase in the number of neurons stained with NeuN
- dose showing neural stem cell differentiation-inducing activity (5XFAD mouse [8]; 5xFAD mouse experiments): 0.1 mg/kg/day

Reference: patent US11147816B2, “Composition for inducing differentiation and protection of neural stem cells and method for inducing neuro-regeneration using the same composition” (GENUV Inc., priority 2016, dated 2021)
